Source: patent US12509460B2 (Skyhawk Therapeutics, Inc., priority 2019, dated 2025)
Like-named read-outs stand apart in the source and are kept apart here.

What was measured:
[1] = test system: mHTT protein in GM04724 (CAG 70/20) Huntington's disease patient lymphoblast cells; assay: mHTT protein assay, 2B7-MW1 assay via Mesoscale Discovery (MSD); assay type: cell-based, human
Outline: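 Patient lymphoblasts treated 48 h with compound from 10 μM to 0.6 nM. mHTT quantified by MSD 2B7-MW1 immunoassay, whose signal depends on polyQ expansion and HTT size. Viability measured on a replicate plate by CellTiter Glo.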

[2] = test system: SMN protein in spinal muscular atrophy (SMA) patient fibroblasts (GM03813, Coriell); assay: SMN protein assay, Mesoscale Discovery (MSD); assay type: cell-based, human; details: read-out: SMN2 protein EC50
Outline: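 SMA patient fibroblasts (GM03813) seeded at 7000 cells/well and exposed to compound at 2.5 μM to 0.6 nM for 48 hours. Lysates assayed for SMN by MSD immunoassay, with absolute SMN amount calculated from a per-plate SMN standard curve (1 μg/ml to 19.5 pg/ml).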

[3] = Quantitative splicing assay (HTT), qPCR; assay type: cell-based, human; details: Homo sapiens, GM04724, 24 h, GM04724 lymphoblasts, read-out: HTT Splicing: E49-50 EC50
Outline: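 Patient lymphoblasts (50,000 cells/well) dosed immediately after plating for 24 h at 2.5 uM to 0.15 nM in 0.1% DMSO. Lysed, cDNA made directly from cells, and inclusion of the intron 49 cryptic exon quantified by TaqMan qPCR.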

[4] = test system: MDR1-MDCK cell monolayers; assay: Blood-brain-barrier (BBB) penetration potential via MDCK-MDR1 permeability assay
MDR1 = assay: as above; details: dog, MDCK-MDR1, pH 7.4, MDCK-MDR1: Efflux
MDR1 (P-gp) = assay: as above; details: dog; for Papp A→B at 120 min, 5 μM: MDCK-MDR1, pH 7.4, MDCK-MDR1: Papp A-B; for Papp B→A at 120 min, 5 μM: MDCK-MDR1, pH 7.4, MDCK-MDR1: Papp B-A
[5] = test system: SMN FL and SMN Δ7 in spinal muscular atrophy (SMA) patient fibroblasts (GM03813, Coriell); assay: Quantitative splicing assay (SMN), qPCR; assay type: cell-based, human; details: read-out: SMN2 Splicing FL EC50
Experimental: Spinal muscular atrophy (SMA) patient fibroblasts (GM03813, Coriell) are plated in 96-well plates at 50,000 cells/well. […] Treated cells are lysed and cDNA synthesized using the Fast Advanced Cells-to-Ct kit (Thermofisher A35378) according to the manufacturer's instructions. 2 μL of each cDNA are used in qPCR reactions. […] Reactions are run in a Quant Studio 6 qPCR instrument with default settings.

[6] = GM04724 (CAG 70/20) Huntington's disease patient lymphoblasts
[7] = SMA patient fibroblasts (GM03813), 48 hours
[8] = Homo sapiens, Fibroblast, 24 h, SMA patient fibroblasts (GM03813), 24 h
[9] = GM04724 Huntington's disease patient lymphoblasts
[10] = SMA patient fibroblasts GM03813, 48 hours, MSD
[11] = Homo sapiens, Fibroblast, 24 h, SMA patient fibroblasts GM03813, 24 h, qPCR

Structure (SMILES): CN(c1ccc(-c2cc3c(=O)n(C)ccc3cc2O)nn1)[C@H]1C[C@@H]2CC[C@H]([C@H]1F)N2C [Compound 98B, 7-(6-(((1R,2R,3S,5S)-2-fluoro-8-methyl-8-azabicyclo[3.2.1]octan-3-yl)(methyl)amino)pyridazin-3-yl)-6-hydroxy-2-methylisoquinolin-1(2H)-one]
- EC50 [1, 6]: 16 to 50 nM
- EC50 [2, 7]: 16 to 50 nM
- EC50 [3]: 16 to 50 nM
- MDCK-MDR1: % Recov A-B ([4]; A-B): 88%
- MDCK-MDR1: % Recov B-A ([4]; B-A): 87%
- efflux ratio at 120 min, 5 μM (MDR1): 10
- Papp A→B at 120 min, 5 μM (MDR1 (P-gp); A-B): 5.01 ×10⁻⁶ cm/s
- Papp B→A at 120 min, 5 μM (MDR1 (P-gp); B-A): 52.6 ×10⁻⁶ cm/s
- EC50 [5, 8]: 16 to 50 nM

Structure (SMILES): CN(c1ccc(-c2ccc(-n3nccn3)cc2O)nn1)[C@@H]1C[C@H]2CCC[C@H](N2)[C@@H]1F [Compound 5A, 2-(6-(((1S,2S,3R,5R)-2-fluoro-9-azabicyclo[3.3.1]nonan-3-yl)(methyl)amino)pyridazin-3-yl)-5-(2H-1,2,3-triazol-2-yl)phenol]
- EC50 [1, 9]: 0.01 to 15 nM
- EC50 [2, 10]: 0.01 to 15 nM
- EC50 ([3]; qPCR): 0.01 to 15 nM
- MDCK-MDR1: % Recov A-B ([4]; A-B direction): 29%
- MDCK-MDR1: % Recov B-A ([4]; B-A direction): 58%
- efflux ratio at 120 min, 5 μM (MDR1; efflux ratio): 4
- Papp A→B at 120 min, 5 μM (MDR1 (P-gp); A-B direction): 4.85 ×10⁻⁶ cm/s
- Papp B→A at 120 min, 5 μM (MDR1 (P-gp); B-A direction): 20.1 ×10⁻⁶ cm/s
- EC50 [5, 11]: 16 to 50 nM

Structure (SMILES): CN(c1ccc(-c2cc3ncccc3cc2O)nn1)[C@@H]1C[C@H]2CC[C@H](N2)[C@@H]1F [Compound 73A, 7-(6-(((1S,2S,3R,5R)-2-fluoro-8-azabicyclo[3.2.1]octan-3-yl)(methyl)amino)pyridazin-3-yl)quinolin-6-ol]
- EC50 [1, 9]: 0.01 to 15 nM
- EC50 [2, 10]: 0.01 to 15 nM
- EC50 ([3]; qPCR): 0.01 to 15 nM
- MDCK-MDR1: % Recov A-B ([4]; A-B direction): 76%
- MDCK-MDR1: % Recov B-A ([4]; B-A direction): 91%
- efflux ratio at 120 min, 5 μM (MDR1; efflux ratio): 21
- Papp A→B at 120 min, 5 μM (MDR1 (P-gp); A-B direction): 2.92 ×10⁻⁶ cm/s
- Papp B→A at 120 min, 5 μM (MDR1 (P-gp); B-A direction): 61.3 ×10⁻⁶ cm/s
- EC50 [5, 11]: 0.01 to 15 nM

Structure (SMILES): CN(c1ccc(-c2cc3ccn(C)c(=O)c3cc2O)nn1)[C@H]1C[C@@H]2CC[C@@H](N2)[C@H]1F [Compound 84B, 6-(6-(((1R,2R,3S,5S)-2-fluoro-8-azabicyclo[3.2.1]octan-3-yl)(methyl)amino)pyridazin-3-yl)-7-hydroxy-2-methylisoquinolin-1(2H)-one]
- EC50 [1, 9]: 0.01 to 15 nM
- EC50 [2, 10]: 0.01 to 15 nM
- EC50 ([3]; qPCR): 0.01 to 15 nM
- MDCK-MDR1: % Recov A-B ([4]; A-B direction): 112%
- MDCK-MDR1: % Recov B-A ([4]; B-A direction): 76%
- efflux ratio at 120 min, 5 μM (MDR1; efflux ratio): 48
- Papp A→B at 120 min, 5 μM (MDR1 (P-gp); A-B direction): 1.06 ×10⁻⁶ cm/s
- Papp B→A at 120 min, 5 μM (MDR1 (P-gp); B-A direction): 50.9 ×10⁻⁶ cm/s
- EC50 [5, 11]: 0.01 to 15 nM

Structure (SMILES): CN(c1ccc(-c2ccc(-c3cnccn3)cc2O)nn1)[C@@H]1C[C@H]2CCC[C@H](N2)[C@@H]1F [Compound 24A, 2-(6-(((1S,2S,3R,5R)-2-fluoro-9-azabicyclo[3.3.1]nonan-3-yl)(methyl)amino)pyridazin-3-yl)-5-(pyrazin-2-yl)phenol]
- EC50 [1, 9]: 51 to 100 nM
- EC50 [2, 10]: 0.01 to 15 nM
- EC50 ([3]; qPCR): 51 to 100 nM
- MDCK-MDR1: % Recov A-B ([4]; A-B direction): 79%
- MDCK-MDR1: % Recov B-A ([4]; B-A direction): 90%
- efflux ratio at 120 min, 5 μM (MDR1; efflux ratio): 13
- Papp A→B at 120 min, 5 μM (MDR1 (P-gp); A-B direction): 4.73 ×10⁻⁶ cm/s
- Papp B→A at 120 min, 5 μM (MDR1 (P-gp); B-A direction): 61.3 ×10⁻⁶ cm/s
- EC50 [5, 11]: 101 to 500 nM

Structure (SMILES): CN(c1ccc(-c2cc3c(=O)n(C)ccc3s2)nn1)[C@H]1C[C@@H]2CC[C@@H](N2)[C@H]1F (single isomer, unassigned) [Compound 68B]
- EC50 [1, 9]: 101 to 500 nM
- EC50 [2, 10]: 16 to 50 nM
- EC50 ([3]; qPCR): 51 to 100 nM
- MDCK-MDR1: % Recov A-B ([4]; A-B direction): 92%
- MDCK-MDR1: % Recov B-A ([4]; B-A direction): 91%
- efflux ratio at 120 min, 5 μM (MDR1; efflux ratio): 113
- Papp A→B at 120 min, 5 μM (MDR1 (P-gp); A-B direction): 0.4 ×10⁻⁶ cm/s
- Papp B→A at 120 min, 5 μM (MDR1 (P-gp); B-A direction): 44.7 ×10⁻⁶ cm/s
- EC50 [5, 11]: 51 to 100 nM

Structure (SMILES): CN(c1ccc(-c2ccc(-n3ccnc3)cc2O)nn1)[C@H]1C[C@@H]2CC[C@@H](N2)[C@H]1F [Compound 4B, 2-(6-(((1R,2R,3S,5S)-2-fluoro-8-azabicyclo[3.2.1]octan-3-yl)(methyl)amino)pyridazin-3-yl)-5-(1H-imidazol-1-yl)phenol]
- EC50 [1, 9]: 0.01 to 15 nM
- EC50 [2, 10]: 0.01 to 15 nM
- EC50 ([3]; qPCR): 0.01 to 15 nM
- MDCK-MDR1: % Recov A-B ([4]; A-B direction): 87%
- MDCK-MDR1: % Recov B-A ([4]; B-A direction): 85%
- efflux ratio at 120 min, 5 μM (MDR1; efflux ratio): 18
- Papp A→B at 120 min, 5 μM (MDR1 (P-gp); A-B direction): 2.82 ×10⁻⁶ cm/s
- Papp B→A at 120 min, 5 μM (MDR1 (P-gp); B-A direction): 49.7 ×10⁻⁶ cm/s
- EC50 [5, 11]: 0.01 to 15 nM

Structure (SMILES): CN(c1ccc(-c2cc3cnccc3cc2O)nn1)[C@@H]1C[C@H]2CC[C@H](N2)[C@@H]1F (single isomer, unassigned) [Compound 7A]
- EC50 [1, 9]: 0.01 to 15 nM
- EC50 [2, 10]: 0.01 to 15 nM
- EC50 ([3]; qPCR): 16 to 50 nM
- MDCK-MDR1: % Recov A-B ([4]; A-B direction): 65%
- MDCK-MDR1: % Recov B-A ([4]; B-A direction): 75%
- efflux ratio at 120 min, 5 μM (MDR1; efflux ratio): 6
- Papp A→B at 120 min, 5 μM (MDR1 (P-gp); A-B direction): 3.31 ×10⁻⁶ cm/s
- Papp B→A at 120 min, 5 μM (MDR1 (P-gp); B-A direction): 20.1 ×10⁻⁶ cm/s
- EC50 ([5]; SMA patient fibroblasts GM03813, 24 h, qPCR): 16 to 50 nM

Structure (SMILES): Cc1nc2cc(-c3ccc(N(C)[C@@H]4C[C@H]5CC[C@H](N5)[C@@H]4F)nn3)c(O)cc2c(=O)n1C [Compound 114A, 7-(6-(((1S,2S,3R,5R)-2-fluoro-8-azabicyclo[3.2.1]octan-3-yl)(methyl)amino)pyridazin-3-yl)-6-hydroxy-2,3-dimethylquinazolin-4(3H)-one]
- EC50 [1, 6]: 0.01 to 15 nM
- EC50 [2, 7]: 0.01 to 15 nM
- EC50 [3]: 0.01 to 15 nM
- MDCK-MDR1: % Recov A-B ([4]; A-B): 102%
- MDCK-MDR1: % Recov B-A ([4]; B-A): 102%
- efflux ratio at 120 min, 5 μM (MDR1): 133
- Papp A→B at 120 min, 5 μM (MDR1 (P-gp); A-B): 0.28 ×10⁻⁶ cm/s
- Papp B→A at 120 min, 5 μM (MDR1 (P-gp); B-A): 37.8 ×10⁻⁶ cm/s
- EC50 [5, 8]: 16 to 50 nM

Structure (SMILES): CN(c1ccc(-c2cc(F)c(-c3ccoc(=O)c3)cc2O)nn1)[C@H]1C[C@@H]2CC[C@@H](N2)[C@H]1F [Compound 17B, 4-(2-fluoro-4-(6-(((1R,2R,3S,5S)-2-fluoro-8-azabicyclo[3.2.1]octan-3-yl)(methyl)amino)pyridazin-3-yl)-5-hydroxyphenyl)-2H-pyran-2-one]
- EC50 [1, 9]: 16 to 50 nM
- EC50 [2, 10]: 16 to 50 nM
- EC50 ([3]; qPCR): 16 to 50 nM
- MDCK-MDR1: % Recov A-B ([4]; A-B direction): 62%
- MDCK-MDR1: % Recov B-A ([4]; B-A direction): 79%
- efflux ratio at 120 min, 5 μM (MDR1; efflux ratio): 19
- Papp A→B at 120 min, 5 μM (MDR1 (P-gp); A-B direction): 1.91 ×10⁻⁶ cm/s
- Papp B→A at 120 min, 5 μM (MDR1 (P-gp); B-A direction): 36.8 ×10⁻⁶ cm/s
- EC50 [5, 11]: 51 to 100 nM

Structure (SMILES): Cc1cc(=O)c2cc(-c3ccc(N(C)[C@@H]4C[C@H]5CC[C@H](N5)[C@@H]4F)nn3)c(O)cc2o1 [Compound 50A, 6-(6-(((1S,2S,3R,5R)-2-fluoro-8-azabicyclo[3.2.1]octan-3-yl)(methyl)amino)pyridazin-3-yl)-7-hydroxy-2-methyl-4H-chromen-4-one]
- EC50 [1, 9]: 0.01 to 15 nM
- EC50 [2, 10]: 0.01 to 15 nM
- EC50 ([3]; qPCR): 0.01 to 15 nM
- MDCK-MDR1: % Recov A-B ([4]; A-B direction): 85%
- MDCK-MDR1: % Recov B-A ([4]; B-A direction): 92%
- efflux ratio at 120 min, 5 μM (MDR1; efflux ratio): 32
- Papp A→B at 120 min, 5 μM (MDR1 (P-gp); A-B direction): 2.16 ×10⁻⁶ cm/s
- Papp B→A at 120 min, 5 μM (MDR1 (P-gp); B-A direction): 68.3 ×10⁻⁶ cm/s
- EC50 [5, 11]: 16 to 50 nM
